# Ends that are not written are not given here.
# Legend:
# [1] = system: B. longum strain CNCM I-2618 (NCC 2705); test: Culture density (Optical Density at 600 nm) of B. longum NCC 2705 grown on carbohydrates; format: cell-based, Bifidobacterium longum subsp longum; settings: grown on different carbohydrates for 24 h and 48 h (FIG. 2)
# Method: B. longum strain CNCM I-2618 (NCC 2705) was grown in Biolector (growth conditions-anaerobic, 37° C.) in MRS+5 mM L-cysteine (MRSc) base without sugar, to which different carbohydrates were added. 48-well microtiter plate with pH sensor and dissolved oxygen (DO) sensor were used to culture the strains in Biolector […]-labs Aachen, Germany). It was continuously shaken to prevent bacteria aggregation for 24 h and 48 h. Cultures were harvested by centrifugation and supernatant was removed. Pellet was resuspended in PBS supplemented with halt protease inhibitor (Sigma) and lysed using glassbeads. Lysate containing both soluble and insoluble material was then collected. Total protein content was measured using Pierce BCA kit (Thermofisher) and serpin protein concentration was determined using ELISA.
# [2] = system: B. longum strain CNCM I-2618 (NCC 2705); test: Serpin protein levels (ELISA) in B. longum NCC 2705 grown on different carbohydrates; format: cell-based, Bifidobacterium longum subsp longum
# Method: B. longum strain CNCM I-2618 (NCC 2705) was grown in Biolector (growth conditions—anaerobic, 37° C.) in MRS+5 mM L-cysteine (MRSc) base without sugar, to which different carbohydrates were added.
# 48-well microtiter plate with pH sensor and dissolved oxygen (DO) sensor were used to culture the strains in Biolector (m2p-labs Aachen, Germany). It was continuously shaken to prevent bacteria aggregation for 24 h and 48 h. Cultures were harvested by centrifugation and supernatant was removed. Pellet was resuspended in PBS supplemented with halt protease inhibitor (Sigma) and lysed using glassbeads. Lysate containing both soluble and insoluble material was then collected. Total protein content was measured using Pierce BCA kit (Thermofisher) and serpin protein concentration was determined using ELISA.
# (§1) B. longum NCC 2705 was cultured in Biolector (as described in Example 1) in a base of MRSc without sugar, with the addition of different di-saccharides and tri-saccharides, at concentrations of 0.5 wt % and 1 wt %. Cultures were collected after 48 h of growth and analyzed for total & serpin protein levels (as described in Example 1).
# as §1, with “short chain fructo-oligosaccharides (FOS),” for “di-saccharides and tri-saccharides,”, “of” for “of 0.5 wt % and”, “16” for “48”
# The FOS used were (i) NutraFlora P95 FOs from Ingredion Inc, USA., a short-chain FOS with Glucose-Fructose (GF) chains with DP from 3 to 5 and comprising GF2, GF3 and GF4 molecules; (ii) Orafti P95 from Beneo, a short-chain FOS with DP from 2 to 8.
# transglutaminase 2 (TG2) = target: T1, transglutaminase 2 (TG2) (Homo sapiens, UniProt P21980); settings: in-vitro, addition of elafin; cited from earlier work
# T1 sequence (P21980 1-687): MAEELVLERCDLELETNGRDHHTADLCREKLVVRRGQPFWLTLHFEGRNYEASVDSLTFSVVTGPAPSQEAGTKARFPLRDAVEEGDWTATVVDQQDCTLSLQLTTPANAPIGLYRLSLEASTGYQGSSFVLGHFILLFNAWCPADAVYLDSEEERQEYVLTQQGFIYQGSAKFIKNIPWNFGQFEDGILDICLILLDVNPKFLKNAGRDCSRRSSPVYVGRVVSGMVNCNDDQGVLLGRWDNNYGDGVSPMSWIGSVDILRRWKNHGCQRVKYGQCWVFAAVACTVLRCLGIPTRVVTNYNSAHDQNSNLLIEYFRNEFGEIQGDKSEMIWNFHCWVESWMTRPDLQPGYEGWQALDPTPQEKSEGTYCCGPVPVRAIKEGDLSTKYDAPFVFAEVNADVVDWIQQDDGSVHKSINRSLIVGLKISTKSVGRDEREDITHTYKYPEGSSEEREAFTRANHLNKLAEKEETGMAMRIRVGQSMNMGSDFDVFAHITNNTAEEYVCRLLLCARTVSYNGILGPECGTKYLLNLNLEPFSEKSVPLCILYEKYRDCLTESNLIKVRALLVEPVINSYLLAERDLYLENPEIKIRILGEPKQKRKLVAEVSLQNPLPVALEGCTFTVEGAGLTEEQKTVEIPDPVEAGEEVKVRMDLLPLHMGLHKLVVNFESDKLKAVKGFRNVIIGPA
# [3] = system: various forms of elastases and proteinase; settings: cited from earlier work
compound,measurement,setting,value
"O=C(CO)[C@@H](O)[C@H](O)[C@H](O)CO [fructose, reference compound]","growth (culture density, Optical Density at 600 nm)",[1],retarded growth
same,serpin protein levels,"[2]; grown for 48 h on different carbohydrates, compared to all other sugars tested (FIG. 1)",increase B. longum NCC 2705 serpin protein levels
same,serpin induction,[2]; grown on different carbohydrates for 24 h and 48 h (FIG. 2),induce serpin in B. longum NCC 2705 to a higher magnitude than galactose
OC[C@H]1O[C@H](OC[C@H]2O[C@H](O[C@]3(CO)O[C@H](CO)[C@@H](O)[C@@H]3O)[C@H](O)[C@@H](O)[C@@H]2O)[C@H](O)[C@@H](O)[C@H]1O [raffinose],serpin levels,"[2]; 0.5 wt %, 48 h of growth, MRSc base without sugar (FIG. 3), effect not obtained at 1 wt %",significant increase in serpin levels
OC[C@H]1O[C@@](CO)(O[C@H]2O[C@H](CO)[C@@H](O)[C@H](O)[C@H]2O)[C@@H](O)[C@@H]1O [saccharose],serpin production,"[2]; 1 wt %, 48 h of growth, MRSc base without sugar (FIG. 3)",induce strongly serpin production
"elafin: human serine protease inhibitor (AQEPVKGPVSTKPGSCPIILIRCAMLNPPNRCLKDTDCPGIKKCCEGSCGMACFVPQ; ends and bridges not checked; cysteine pairing not given here; UniProt P19957 61-117, looked up)",inhibition of transglutaminase 2 (TG2),transglutaminase 2 (TG2),moderately inhibits transglutaminase 2 (TG2)
same,inhibitory capacity against elastases and proteinase,[3],potent inhibitory capacity

# Reference: patent US12644094B2, “Serpin production” (SOCIETE DES PRODUITS NESTLE S.A., priority 2019, dated 2026)
